According to US12234221B2, “Pyridine carboxamide compounds for inhibiting NAV1.8” (Lieber Institute, Inc., priority 2018, dated 2025):

System: Nav 1.8
Assay: not given
Conditions: PTHS models (ex vivo cell model, rodent models); cited from earlier work

For `COc1ccc(Cl)c(-c2ccc(NC(=O)c3ccnn3C)nc2N)c1` [PF 4531083, N-[6-amino-5-(2-chloro-5-methoxyphenyl)pyridin-2-yl]-1-methyl-1H-pyrazole-5-carboxamide], the “effect on excitability phenotypes” value is given as “can rapidly reverse some of the excitability phenotypes”.
In the case of `COc1cc(NC(=O)c2ccc(-c3ccc(Cl)cc3)o2)cc(OC)c1` [Example A-803467, 5-4(-chlorophenyl)-N-(3,5-dimethoxyphenyl)furan-2-carboxamide], the “effect on excitability phenotypes” value is listed as “can rapidly reverse some of the excitability phenotypes”.

Molecular target: T1, Nav 1.8 (Mus musculus, UniProt Q6QIY3)
T1 construct: host or cells: mouse, in vivo
T1 sequence (Q6QIY3 whole entry): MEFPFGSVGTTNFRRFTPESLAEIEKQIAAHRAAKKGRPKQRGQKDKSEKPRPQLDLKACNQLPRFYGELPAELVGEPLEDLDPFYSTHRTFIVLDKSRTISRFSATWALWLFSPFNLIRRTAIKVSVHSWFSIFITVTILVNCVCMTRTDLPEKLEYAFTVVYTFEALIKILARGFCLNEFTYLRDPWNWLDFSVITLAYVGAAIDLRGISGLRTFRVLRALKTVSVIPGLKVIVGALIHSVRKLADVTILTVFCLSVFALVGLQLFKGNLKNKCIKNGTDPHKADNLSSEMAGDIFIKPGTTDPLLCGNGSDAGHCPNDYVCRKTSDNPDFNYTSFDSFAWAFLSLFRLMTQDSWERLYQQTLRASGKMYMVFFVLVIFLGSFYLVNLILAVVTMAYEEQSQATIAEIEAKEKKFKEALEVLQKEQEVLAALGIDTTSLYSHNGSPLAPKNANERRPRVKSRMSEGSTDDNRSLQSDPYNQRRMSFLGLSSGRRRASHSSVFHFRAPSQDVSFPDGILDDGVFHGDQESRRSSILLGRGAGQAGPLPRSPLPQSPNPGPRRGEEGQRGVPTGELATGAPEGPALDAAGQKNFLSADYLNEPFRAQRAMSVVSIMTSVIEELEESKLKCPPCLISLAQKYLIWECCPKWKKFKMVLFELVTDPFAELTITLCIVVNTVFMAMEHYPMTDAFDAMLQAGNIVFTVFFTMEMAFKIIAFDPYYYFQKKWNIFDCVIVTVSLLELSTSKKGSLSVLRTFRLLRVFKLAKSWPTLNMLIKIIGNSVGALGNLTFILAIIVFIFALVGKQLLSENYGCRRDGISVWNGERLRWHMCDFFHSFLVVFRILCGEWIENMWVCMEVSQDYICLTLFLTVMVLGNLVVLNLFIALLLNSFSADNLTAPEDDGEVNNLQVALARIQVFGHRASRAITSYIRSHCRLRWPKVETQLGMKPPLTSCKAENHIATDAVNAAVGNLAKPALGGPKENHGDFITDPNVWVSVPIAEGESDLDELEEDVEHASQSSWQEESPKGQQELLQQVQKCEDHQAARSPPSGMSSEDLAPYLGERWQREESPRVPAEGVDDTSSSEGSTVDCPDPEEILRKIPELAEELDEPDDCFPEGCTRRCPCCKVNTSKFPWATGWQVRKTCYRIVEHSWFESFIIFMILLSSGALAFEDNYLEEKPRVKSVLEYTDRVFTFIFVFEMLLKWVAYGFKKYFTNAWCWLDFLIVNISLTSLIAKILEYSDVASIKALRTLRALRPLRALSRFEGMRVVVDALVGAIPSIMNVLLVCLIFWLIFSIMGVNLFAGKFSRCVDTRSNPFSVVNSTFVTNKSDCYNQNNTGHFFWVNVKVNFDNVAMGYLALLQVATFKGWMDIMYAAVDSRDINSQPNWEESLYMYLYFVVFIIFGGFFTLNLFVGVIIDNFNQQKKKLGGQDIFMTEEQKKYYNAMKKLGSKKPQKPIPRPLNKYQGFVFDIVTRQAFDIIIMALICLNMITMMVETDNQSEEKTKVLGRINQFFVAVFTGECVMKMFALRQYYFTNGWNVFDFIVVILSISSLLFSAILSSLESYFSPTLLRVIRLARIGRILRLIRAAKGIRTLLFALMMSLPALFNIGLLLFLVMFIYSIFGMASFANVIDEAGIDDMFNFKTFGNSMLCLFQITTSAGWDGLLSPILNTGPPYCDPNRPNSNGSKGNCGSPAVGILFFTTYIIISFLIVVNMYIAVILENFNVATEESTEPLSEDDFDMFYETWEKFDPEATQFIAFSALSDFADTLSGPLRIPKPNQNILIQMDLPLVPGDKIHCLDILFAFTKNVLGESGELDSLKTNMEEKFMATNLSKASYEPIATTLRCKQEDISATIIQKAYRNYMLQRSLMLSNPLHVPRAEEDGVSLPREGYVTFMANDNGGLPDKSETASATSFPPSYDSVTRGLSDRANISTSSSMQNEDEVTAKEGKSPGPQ
Assay: not given
Conditions: mouse model of MS; cited from earlier work

In the case of `CNC(=O)c1ccc(-c2cc(Cl)cc(Cl)c2Cl)c(N)n1` [PF 01247324, N-methyl-6-amino-5-(2,3,5-trichlorophenyl)pyridine-2-carboxamide], the “effect on cerebellar deficits” value is given as “reverses cerebellar deficits”.

Molecular target: T2, human Nav1.8 (hNav1.8) ion channel (Homo sapiens, UniProt Q9Y5Y9)
T2 construct: expressed in transfected cells; host or cells: HEK293
T2 sequence (Q9Y5Y9 whole entry): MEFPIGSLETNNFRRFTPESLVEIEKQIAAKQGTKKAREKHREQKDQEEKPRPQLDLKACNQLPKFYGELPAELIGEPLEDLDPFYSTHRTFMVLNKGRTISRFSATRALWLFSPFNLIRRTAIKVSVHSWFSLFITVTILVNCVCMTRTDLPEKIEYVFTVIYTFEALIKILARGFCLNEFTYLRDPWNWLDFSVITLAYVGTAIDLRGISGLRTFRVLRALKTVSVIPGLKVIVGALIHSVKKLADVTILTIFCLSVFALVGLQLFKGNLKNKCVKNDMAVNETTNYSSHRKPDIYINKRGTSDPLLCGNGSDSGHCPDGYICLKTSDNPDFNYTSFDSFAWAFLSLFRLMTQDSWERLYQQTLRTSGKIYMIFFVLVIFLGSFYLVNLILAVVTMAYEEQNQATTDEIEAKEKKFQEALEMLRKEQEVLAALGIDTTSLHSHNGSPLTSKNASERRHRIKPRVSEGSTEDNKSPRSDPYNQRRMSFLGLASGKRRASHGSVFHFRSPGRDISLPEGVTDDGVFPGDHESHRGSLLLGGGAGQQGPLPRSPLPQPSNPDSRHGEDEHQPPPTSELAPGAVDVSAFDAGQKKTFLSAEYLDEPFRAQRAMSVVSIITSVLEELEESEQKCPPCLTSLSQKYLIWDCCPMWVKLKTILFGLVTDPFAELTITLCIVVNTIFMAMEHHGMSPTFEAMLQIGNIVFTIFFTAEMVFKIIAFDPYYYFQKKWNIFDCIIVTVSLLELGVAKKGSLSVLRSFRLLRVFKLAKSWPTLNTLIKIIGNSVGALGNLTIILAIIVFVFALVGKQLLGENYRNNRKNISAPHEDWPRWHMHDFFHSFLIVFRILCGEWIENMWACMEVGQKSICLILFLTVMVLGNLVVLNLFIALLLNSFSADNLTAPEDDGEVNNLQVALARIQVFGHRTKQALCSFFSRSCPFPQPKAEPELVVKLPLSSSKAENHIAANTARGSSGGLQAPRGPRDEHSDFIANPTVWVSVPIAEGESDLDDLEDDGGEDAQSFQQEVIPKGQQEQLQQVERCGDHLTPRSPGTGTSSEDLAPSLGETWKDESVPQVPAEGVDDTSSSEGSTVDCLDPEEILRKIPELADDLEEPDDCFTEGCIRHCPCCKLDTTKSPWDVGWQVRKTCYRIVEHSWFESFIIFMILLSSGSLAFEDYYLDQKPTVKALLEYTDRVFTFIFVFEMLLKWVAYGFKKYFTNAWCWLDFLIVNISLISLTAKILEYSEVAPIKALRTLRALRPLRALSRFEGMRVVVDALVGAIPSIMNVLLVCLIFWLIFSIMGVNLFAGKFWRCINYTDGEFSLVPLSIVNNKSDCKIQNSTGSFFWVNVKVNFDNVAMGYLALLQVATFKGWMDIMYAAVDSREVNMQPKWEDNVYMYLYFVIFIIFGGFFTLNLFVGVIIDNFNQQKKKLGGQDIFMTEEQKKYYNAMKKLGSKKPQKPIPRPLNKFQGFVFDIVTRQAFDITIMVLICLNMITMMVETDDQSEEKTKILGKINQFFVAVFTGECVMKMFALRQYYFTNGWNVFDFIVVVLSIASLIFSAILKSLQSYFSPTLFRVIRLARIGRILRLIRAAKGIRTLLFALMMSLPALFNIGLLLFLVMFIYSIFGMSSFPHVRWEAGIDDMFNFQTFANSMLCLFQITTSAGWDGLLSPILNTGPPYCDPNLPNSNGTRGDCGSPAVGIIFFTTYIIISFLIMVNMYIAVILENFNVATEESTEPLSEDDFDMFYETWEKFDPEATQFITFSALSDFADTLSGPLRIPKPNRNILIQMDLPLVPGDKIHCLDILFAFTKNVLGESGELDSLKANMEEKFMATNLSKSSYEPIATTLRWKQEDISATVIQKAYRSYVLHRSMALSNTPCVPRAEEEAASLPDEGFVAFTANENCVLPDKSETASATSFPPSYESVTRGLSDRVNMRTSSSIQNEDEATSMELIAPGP
Assay: Nav1.8 channel inhibition, estimated IC50 (one or more of: fluorescence inhibition assay, PatchXpress, IonFlux HT automated patch clamp)
Format: cell-based
Conditions: HEK293 cells stably expressing hNav1.8; method used per compound not stated; read-out: Activity range (estimated IC50)
Procedure, shortened: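 HEK293 cells stably expressing hNav1.8 with β1/β2 subunits; IC50 from the fluorescence assay and/or automated whole-cell patch clamp (PatchXpress, IonFlux HT). Fluorescence: ANG-2 Na dye, 5 min compound preincubation (0.02–5 μM, 1% DMSO) with 30 μM ouabain, stimulation by 10 μM deltamethrin, peak signal fit logistically. PatchXpress: holding potential reset to Vhalf, inhibition normalized to control/washout currents.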

Compared with `COc1cc(F)ccc1Oc1ncc(C(F)(F)F)cc1C(=O)Nc1ccncn1` [Example 12, 2-(4-fluoro-2-methoxy-phenoxy)-N-pyrimidin-4-yl-5-(trifluoromethyl)pyridine-3-carboxamide], `COc1cc(F)ccc1Oc1ncc(C(F)(F)F)cc1C(=O)Nc1ccc2ncsc2c1` [Example 1, N-(1,3-benzothiazol-6-yl)-2-(4-fluoro-2-methoxy-phenoxy)-5-(trifluoromethyl)pyridine-3-carboxamide] is higher in IC50: < 500 nM for the first, > 1000 nM for the second. The first is the more potent here.

Going from `CS(=O)(=O)c1cccc(NC(=O)c2cc(C(F)(F)F)cnc2Oc2cccc3scnc23)c1` [Example 58, 2-(1,3-benzothiazol-4-yloxy)-N-(3-methylsulfonyl-phenyl)-5-(trifluoromethyl)pyridine-3-carboxamide] to `CC(C)c1ccccc1Oc1ncc(C(F)(F)F)cc1C(=O)Nc1cccc(S(C)(=O)=O)c1` [Example 46, 2-(2-isopropylphenoxy)-N-(3-methylsulfonyl-phenyl)-5-(trifluoromethyl)pyridine-3-carboxamide], the IC50 falls from > 1000 nM to < 500 nM.

`CS(=O)(=O)c1cccc(NC(=O)c2cc(C(F)(F)F)cnc2Oc2ccccc2)c1` [Example 41, N-(3-methylsulfonyl-phenyl)-2-phenoxy-5-(trifluoromethyl)pyridine-3-carboxamide] and `CS(=O)(=O)c1cccc(NC(=O)c2cc(C(F)(F)F)cnc2Oc2ccc(F)cc2)c1` [Example 34, 2-(4-fluorophenoxy)-N-(3-methylsulfonyl-phenyl)-5-(trifluoromethyl)pyridine-3-carboxamide] cannot be ordered by IC50: > 1000 nM for the first, > 1000 nM for the second.

`CN=S(C)(=O)c1cccc(NC(=O)c2cc(C(F)(F)F)cnc2Oc2ccc(F)cc2F)c1` (stereo not shown) [Example 175, 2-(2,4-difluorophenoxy)-N-[3-(N,S-dimethylsulfonimidoyl)phenyl]-5(trifluoromethyl)pyridine-3-carboxamide] and `CS(=O)(=O)c1cccc(NC(=O)c2cc(C(F)(F)F)cnc2Oc2ccc(F)cc2Cl)c1` [Example 36, 2-(2-chloro-4-fluoro-phenoxy)-N-(3-methylsulfonyl-phenyl)-5-(trifluoromethyl)pyridine-3-carboxamide] cannot be ordered by IC50: < 500 nM for the first, < 500 nM for the second.

First: CN=S(C)(=O)c1cccc(NC(=O)c2cnc(C(F)(F)F)cc2Oc2ccc(OC(F)(F)F)cc2Cl)c1 (stereo not shown) [Example 82, 4-[2-chloro-4-(trifluoromethoxy)phenoxy]-N-[3-(N,S-dimethylsulfonimidoyl)phenyl]-6-(trifluoromethyl)pyridine-3-carboxamide]
Second: CN(C)S(=O)(=O)c1cccc(NC(=O)c2cnc(C(F)(F)F)cc2Oc2ccc(OC(F)(F)F)cc2Cl)c1 [Example 76, 4-[2-chloro-4-(trifluoromethoxy)phenoxy]-N-[3-(dimethylsulfamoyl)phenyl]-6-(trifluoromethyl)pyridine-3-carboxamide]
The IC50 of the first is lower: < 500 nM for the first, 500 to 1000 nM for the second.

Going from `Cn1cnc(NC(=O)c2cc(C(F)(F)F)cnc2Oc2ccc(OC(F)(F)F)cc2Cl)n1` [Example 170, 2-[2-chloro-4-(trifluoromethoxy)phenoxy]-N-(1-methyl-1,2,4-triazol-3-yl)-5-(trifluoromethyl)pyridine-3-carboxamide] to `O=C(Nc1ccc(F)c(F)c1)c1cc(C(F)(F)F)cnc1Oc1ccc(OC(F)(F)F)cc1Cl` [Example 155, 2-[2-chloro-4-(trifluoromethoxy)phenoxy]-N-(3,4-difluorophenyl)-5-(trifluoromethyl)pyridine-3-carboxamide], the IC50 falls from > 1000 nM to < 500 nM. The second is the more potent here.

First: CS(=N)(=O)c1cccc(NC(=O)c2cc(C(F)(F)F)cnc2Oc2ccccc2Cl)c1 (stereo not shown) [Example 62, 2-(2-chlorophenoxy)-N-[3-(methylsulfonimidoyl)phenyl]-5-(trifluoromethyl)pyridine-3-carboxamide]
Second: Cc1cc(F)ccc1Oc1ncc(C(F)(F)F)cc1C(=O)Nc1ccc[n+]([O-])c1 [Example 133, 2-(4-fluoro-2-methyl-phenoxy)-N-(1-oxidopyridin-1-ium-3-yl)-5-(trifluoromethyl)pyridine-3-carboxamide]
The IC50 of the first is lower: < 500 nM for the first, > 1000 nM for the second. The first is the more potent here.

`O=C(Nc1ccc[n+]([O-])c1)c1cnc(C(F)(F)F)cc1Oc1ccc(F)cc1F` [Example 89, 4-(2,4-difluorophenoxy)-N-(1-oxidopyridin-1-ium-3-yl)-6-(trifluoromethyl)pyridine-3-carboxamide] and `O=C(Nc1ccnnc1)c1cnc(C(F)(F)F)cc1Oc1ccc(OC(F)F)cc1` [Example 97, 4-[4-(difluoromethoxy)phenoxy]-N-pyridazin-4-yl-6-(trifluoromethyl)pyridine-3-carboxamide] cannot be ordered by IC50: > 1000 nM for the first, > 1000 nM for the second.
